Source: ChEMBL document CHEMBL1806373, “Synthesis and biological evaluation of piperamide analogues as HDAC inhibitors” (Bioorg Med Chem Lett, 2011)
The source made the active and inactive calls. The calls are words filed in the database; no cut-off is given here.

Experiments:
Histone deacetylase 3 [1] = molecular target: T1, Histone deacetylase 3 (Homo sapiens, UniProt O15379); experiment: Inhibition of human recombinant HDAC3 expressed in baculovirus infected insect High5 cells using Ac-Lys-Tyr-Lys(epsilon-acetyl)-AMC as substrate by fluorescence assay
Histone deacetylase 1 [2] = molecular target: T2, Histone deacetylase 1 (Homo sapiens, UniProt Q13547); experiment: Inhibition of human recombinant HDAC1 expressed in baculovirus infected insect High5 cells using Ac-Lys-Tyr-Lys(epsilon-acetyl)-AMC as substrate by fluorescence assay
HCT-116 = experiment: Cytotoxicity against human HCT116 cells after 24 hrs by MTT assay; format: functional, cell-based; details: HCT-116, 24 h
[3] = molecular target: T3, Protein deacetylase HDAC6 (Homo sapiens, UniProt Q9UBN7); experiment: Inhibition of human recombinant HDAC6 expressed in baculovirus infected insect High5 cells using Boc-Lys(epsilon-acetyl)-AMC as substrate by fluorescence assay
T3 sequence (Q9UBN7 whole entry): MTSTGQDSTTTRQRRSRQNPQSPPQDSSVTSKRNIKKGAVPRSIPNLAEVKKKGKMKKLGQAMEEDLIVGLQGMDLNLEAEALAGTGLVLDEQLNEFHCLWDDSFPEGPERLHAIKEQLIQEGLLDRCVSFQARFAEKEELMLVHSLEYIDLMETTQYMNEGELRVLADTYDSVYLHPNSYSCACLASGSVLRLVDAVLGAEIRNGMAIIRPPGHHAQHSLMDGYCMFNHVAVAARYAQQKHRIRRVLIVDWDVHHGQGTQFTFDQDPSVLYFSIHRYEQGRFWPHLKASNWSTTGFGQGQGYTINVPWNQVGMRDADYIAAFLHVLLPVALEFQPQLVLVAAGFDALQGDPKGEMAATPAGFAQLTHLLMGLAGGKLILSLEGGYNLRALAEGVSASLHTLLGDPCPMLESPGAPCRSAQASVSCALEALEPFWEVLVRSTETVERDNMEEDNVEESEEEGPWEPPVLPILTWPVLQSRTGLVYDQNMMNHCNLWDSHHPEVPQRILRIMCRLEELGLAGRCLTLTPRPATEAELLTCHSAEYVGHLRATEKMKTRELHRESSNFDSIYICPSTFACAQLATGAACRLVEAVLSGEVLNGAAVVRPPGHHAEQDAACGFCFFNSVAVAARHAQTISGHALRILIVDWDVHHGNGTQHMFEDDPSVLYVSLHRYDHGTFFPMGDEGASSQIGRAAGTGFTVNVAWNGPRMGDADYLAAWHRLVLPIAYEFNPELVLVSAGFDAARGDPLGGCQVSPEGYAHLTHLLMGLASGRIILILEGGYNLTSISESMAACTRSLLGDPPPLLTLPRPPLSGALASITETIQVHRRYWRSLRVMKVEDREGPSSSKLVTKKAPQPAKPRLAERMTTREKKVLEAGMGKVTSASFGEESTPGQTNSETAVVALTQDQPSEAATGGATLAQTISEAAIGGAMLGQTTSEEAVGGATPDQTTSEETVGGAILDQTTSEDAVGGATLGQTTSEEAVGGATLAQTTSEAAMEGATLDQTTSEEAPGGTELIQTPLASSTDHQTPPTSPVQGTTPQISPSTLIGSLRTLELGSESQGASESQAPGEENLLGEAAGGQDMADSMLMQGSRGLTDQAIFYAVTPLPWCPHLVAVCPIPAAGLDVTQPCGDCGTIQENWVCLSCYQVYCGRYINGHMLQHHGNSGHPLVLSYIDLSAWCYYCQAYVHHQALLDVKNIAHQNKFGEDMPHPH

Histone deacetylase 3 [4] = molecular target: T1, Histone deacetylase 3; experiment: Inhibition of human recombinant HDAC3 expressed in baculovirus infected insect High5 cells using Ac-Lys-Tyr-Lys(epsilon-acetyl)-AMC as substrate at 20 ug/ml by fluorescence assay
[5] = molecular target: T4, Protein deacetylase HDAC6 (Homo sapiens) (UniProt Q9UBN7); experiment: Inhibition of human recombinant HDAC6 expressed in baculovirus infected insect High5 cells using Boc-Lys(epsilon-acetyl)-AMC as substrate at 20 ug/ml by fluorescence assay
T4 sequence (whole entry): T3 sequence (Q9UBN7 whole entry)

Histone deacetylase 1 [6] = molecular target: T2, Histone deacetylase 1; experiment: Inhibition of human recombinant HDAC1 expressed in baculovirus infected insect High5 cells using Ac-Lys-Tyr-Lys(epsilon-acetyl)-AMC as substrate at 20 ug/ml by fluorescence assay

T1 sequence (O15379 whole entry): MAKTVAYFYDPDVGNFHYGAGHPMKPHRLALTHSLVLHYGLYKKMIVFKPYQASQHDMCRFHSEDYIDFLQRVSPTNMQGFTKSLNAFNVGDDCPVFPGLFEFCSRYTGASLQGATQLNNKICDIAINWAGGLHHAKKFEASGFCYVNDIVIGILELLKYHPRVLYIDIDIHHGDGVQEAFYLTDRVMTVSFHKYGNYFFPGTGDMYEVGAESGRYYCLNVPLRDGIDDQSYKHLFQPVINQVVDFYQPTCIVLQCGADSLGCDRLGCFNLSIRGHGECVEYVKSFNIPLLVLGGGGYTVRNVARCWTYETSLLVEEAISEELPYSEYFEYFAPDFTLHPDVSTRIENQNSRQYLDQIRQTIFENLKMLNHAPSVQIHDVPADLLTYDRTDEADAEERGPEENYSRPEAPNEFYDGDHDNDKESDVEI
T2 sequence (Q13547 whole entry): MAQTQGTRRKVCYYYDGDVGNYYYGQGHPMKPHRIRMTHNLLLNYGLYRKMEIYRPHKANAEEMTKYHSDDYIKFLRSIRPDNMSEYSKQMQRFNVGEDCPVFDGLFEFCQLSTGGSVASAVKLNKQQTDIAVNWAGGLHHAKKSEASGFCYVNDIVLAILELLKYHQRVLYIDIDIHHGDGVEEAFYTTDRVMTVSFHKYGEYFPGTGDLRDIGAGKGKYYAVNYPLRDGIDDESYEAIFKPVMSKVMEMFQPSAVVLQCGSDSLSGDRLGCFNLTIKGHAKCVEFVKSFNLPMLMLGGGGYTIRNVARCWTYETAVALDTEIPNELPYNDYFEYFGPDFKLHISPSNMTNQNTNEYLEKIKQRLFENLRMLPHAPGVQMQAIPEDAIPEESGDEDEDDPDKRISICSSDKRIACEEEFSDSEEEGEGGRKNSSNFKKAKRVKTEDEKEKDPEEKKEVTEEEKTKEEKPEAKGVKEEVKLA

| SMILES | IC50 (Histone deacetylase 3 [1]) | IC50 (Histone deacetylase 1 [2]) | IC50 [3] | inhibition (Histone deacetylase 3 [4]) | inhibition [5] | inhibition (Histone deacetylase 1 [6]) | IC50 (HCT-116) |
| --- | --- | --- | --- | --- | --- | --- | --- |
| O=C(/C=C/C=C/CC/C=C/c1ccc2c(c1)OCO2)NO | 0.76 µM | 0.73 µM | 0.73 µM |  |  |  | 4.4 µM |
| CC(C)CNC(=O)/C=C/C=C/CC/C=C/c1ccc2c(c1)OCO2 [RETROFRACTAMIDE A] |  |  |  | < 50% | < 50% | < 50% | > 20 µM |
| O=C(/C=C/C=C/c1ccc2c(c1)OCO2)NO |  |  | 30.4 µM | inactive |  | inactive | 9.1 µM |
| CC(C)CNC(=O)/C=C/C=C/c1ccc2c(c1)OCO2 [PIPERLONGUMININE] |  |  |  | inactive | < 50% | inactive | > 20 µM |

More lines, main results first:

| IC50 (Histone deacetylase 3 [1]) | IC50 (Histone deacetylase 1 [2]) | IC50 [3] | inhibition (Histone deacetylase 3 [4]) | inhibition [5] | inhibition (Histone deacetylase 1 [6]) | SMILES | IC50 (HCT-116) |
| --- | --- | --- | --- | --- | --- | --- | --- |
|  |  |  | inactive | < 50% | inactive | O=C(O)/C=C/C=C/c1ccc2c(c1)OCO2 [PIPERIC ACID] | > 20 µM |
|  |  |  | < 50% | < 50% | < 50% | O=C(O)/C=C/C=C/CC/C=C/c1ccc2c(c1)OCO2 | > 20 µM |
|  |  |  | < 50% | < 50% | < 50% | O=C(O)/C=C/C=C/CCCCc1ccc2c(c1)OCO2 | > 20 µM |
| 1.52 µM | 1.61 µM | 2.25 µM |  |  |  | O=C(/C=C/C=C/CCCCc1ccc2c(c1)OCO2)NO | 3.5 µM |
